Values of other authors in patent US20020051978A1, “Methods and compositions for the identification, assessment, prevention and therapy of human cancers” (priority 2000, published 2002).
Where a name gives a salt, the structure may show the parent alone. Read-outs that look alike come from different tables or passages of the source.

Test system: 60 cancer cell lines (NCI 60 cancer cell line series)
Details: cited from earlier work

SMILES: CC[C@]1(O)C[C@H]2CN(CCc3c([nH]c4ccccc34)[C@@](C(=O)OC)(c3cc4c(cc3OC)N(C=O)[C@H]3[C@@](O)(C(=O)OC)[C@H](OC(C)=O)[C@]5(CC)C=CCN6CC[C@]43[C@@H]65)C2)C1 [Vincristine sulfate]
- -Log (GI50) (Breast BT-549 (CL5013)): 5.9
- -Log (GI50) (Breast HS-578T CL5006): 6.5
- -Log (GI50) (Breast MCF7(I) (CL5001)): 6.9
- -Log (GI50) (Breast MCF7/ADRr (CL5002)): 6.1
- -Log (GI50) (Breast MDA-MB-231 CL5005): 6.6
- -Log (GI50) (Breast MDA-MB-435 (CL5011)): 6.7
- -Log (GI50) (Breast MDA-N CL5012): 6.6
- -Log (GI50) (Breast T-47D (CL5014)): 3.8
- -Log (GI50) (CNS SF-268 CL12014): 6.8
- -Log (GI50) (CNS SF-295 CL12015): 7.0
- -Log (GI50) (CNS SF-539 CL12016): 7.0
- -Log (GI50) (CNS SNB-19 (CL12002)): 6.9
- -Log (GI50) (CNS SNB-75(I) CL12005): 6.3
- -Log (GI50) (CNS U251(I) CL12009): 6.9
- -Log (GI50) (Colon COLO-250 CL4010): 6.9
- -Log (GI50) (Colon HCC-2998 (CL4002)): 6.9
- -Log (GI50) (Colon HCT-15 CL4015): 6.9
- -Log (GI50) (Colon HCT-116 (CL4003)): 6.9
- -Log (GI50) (Colon HT29(I) CL4001): 7.0
- -Log (GI50) (Colon KM12 (CL4017)): 6.9
- -Log (GI50) (Colon SW-620 (CL4009)): 7.0
- -Log (GI50) (Leukemia CCRF-CEM(I) (CL7003)): 7.0
- -Log (GI50) (Leukemia HL-60(I) (CL7008)): 7.0
- -Log (GI50) (Leukemia K562(I) CL7005): 7.0
- -Log (GI50) (Leukemia MOLT-4 (CL7006)): 6.9
- -Log (GI50) (Leukemia RPMI-8226(I) (CL7010)): 6.9
- -Log (GI50) (Leukemia SR CL7019): 7.0
- -Log (GI50) (Melanoma LOX IMVI CL10001): 7.0
- -Log (GI50) (Melanoma M14 (CL10014)): 6.9
- -Log (GI50) (Melanoma MALME-3M CL10002): 6.6
- -Log (GI50) (Melanoma SK-MEL-2 (CL10005)): 6.9
- -Log (GI50) (Melanoma SK-MEL-5 (CL10007)): 7.0
- -Log (GI50) (Melanoma SK-MEL-28 (CL10008)): 6.0
- -Log (GI50) (Melanoma UACC-62 (CL10020)): 6.9
- -Log (GI50) (Melanoma UACC-257 (CL10021)): 6.8
- -Log (GI50) (NCSLC NCI-H522 CL1003): 6.9
- -Log (GI50) (NSCLC A549/ATCC (CL1004)): 6.9
- -Log (GI50) (NSCLC EKVX (CL1008)): 5.7
- -Log (GI50) (NSCLC HOP-62 (CL1026)): 6.8
- -Log (GI50) (NSCLC HOP-92 (CL1029)): 6.9
- -Log (GI50) (NSCLC NCI-H23(I) CL1001): 7.0
- -Log (GI50) (NSCLC NCI-H226 CL1013): 6.9
- -Log (GI50) (NSCLC NCI-H332M CL1017): 6.9
- -Log (GI50) (NSCLC NCI-H460 CL1021): 7.0
- -Log (GI50) (Ovarian IGROV1 CL6010): 7.0
- -Log (GI50) (Ovarian OVCAR-3 CL6001): 7.0
- -Log (GI50) (Ovarian OVCAR-4 CL6002): 6.3
- -Log (GI50) (Ovarian OVCAR-5 CL6003): 4.7
- -Log (GI50) (Ovarian OVCAR-8 CL6005): 7.0
- -Log (GI50) (Ovarian SK-OV-3 CL6011): 6.6
- -Log (GI50) (Prostate DU-145 CL11003): 6.4
- -Log (GI50) (Prostate PC-3(I) CL11001): 6.6
- -Log (GI50) (Renal 786-O CL9018): 6.9
- -Log (GI50) (Renal A498 CL9013): 7.0
- -Log (GI50) (Renal ACHN CL9023): 6.8
- -Log (GI50) (Renal CAKI-1 CL9015): 6.9
- -Log (GI50) (Renal RXF-393 CL9016): 6.9
- -Log (GI50) (Renal SN12C CL9008): 6.9
- -Log (GI50) (Renal TK10 CL9024): 5.7
- -Log (GI50) (Renal UO-31 CL9004): 5.7
